Columns and labels:
[1] = tested on: P. falciparum Stage V gametocytes; experiment: Compound sensitivity testing of Stage V gametocytes; format: cell-based; details: Plasmodium falciparum, read-out: IC50 against stage V gametocytes
Description: Gametocytes were induced in NF54 or derived clones as previously described (33). Asexual blood stage parasites were synchronized at ring stage using 5% sorbitol for three consecutive life cycles. Once the culture reached a parasitemia of 8-10% ring stages, half of the media was exchanged to stress the parasites. Twenty-four hours later, the culture media was exchanged with fresh media and the culture was shaken overnight. The following day, the culture was treated with 50 mM N-acetyl-glucosamine (NAG) (in complete media), and new media containing NAG was added every day for 10 days to clear remaining asexual blood stage parasites and enrich for gametocytes. After 10 days, complete media without NAG was provided each day for the last two days of gametocyte development in order to obtain ˜1% gametocytemia with >80% Stage V specificity and no visible asexual blood stage parasites (assessed via Giemsa-stained thin smears). Drug Sensitivity of Stage V gametocytes were then determined using a published protocol using mitotracker red (34). Each compound was tested in technical triplicate in a ten-point concentration curve prepared by three-fold dilution starting at 12.5 μM. At least three independent experiments were carried out for EC50 determination and puromycin was used as a positive control. […]

[2] = tested on: 20S Plasmodium proteasome (Pf20S) β5 subunit; experiment: Proteasome activity assay, Pf20S β5 (suc-LLVY-AMC); format: biochemical, Plasmodium falciparum
Description: (§1) Asynchronous P. falciparum cultures were grown up to 4-5% parasitemia, in 300 mL of RPMI media at 5.0% hematocrit. Cultures were then transferred to 50 mL conical tubes, pelleted via centrifugation at 800 g for 5 min, and washed once with 1×PBS and pelleted again as above. The PBS was removed and lysis buffer (0.15% saponin in PBS) was added on ice in 10 pellet volumes. Upon lysis of red blood cells, indicated by a clear red supernatant, the lysed cultures were centrifuged at 3200×g for 12 minutes at 4° C. The supernatant was removed by aspiration and the cells were washed twice using chilled PBS in microcentrifuge tubes. The cell pellets were then incubated on ice for 1 hour with occasional vortexing in a buffer consisting of 20 mM Tris-HCl pH 7.5, 5 mM MgCl2, 1 mM DTT, 100 μM E-64 and 1 mM AEBSF. This sample was then subjected to 3 rounds of freezing (−80° C.) and thawing (37° C.) and centrifugation at 6000×g for 10 min. The supernatant containing soluble P. falciparum protein was quantified by the BCA method (Pierce).
P. falciparum proteasome was enriched by two-chromatographic steps reported previously (10). In brief, 10 mg of P. falciparum protein was concentrated to 1 mL using a 100 kDa centrifugal filter unit (Amicon) and loaded onto a 5 mL anion exchange HiTrap DEAE FF column (GE Healthcare). […] The AMC fluorophore release was monitored at Ex 340/Em 465 nm at 24° C. using a Synergy HTX multi-mode reader (Biotek). […] Proteins were eluted using 20 mM Tris-HCl pH 7.5, 100 mM NaCl, 10% glycerol and 1 mL fractions were collected, evaluated for protease activity and pooled.
To estimate the concentration of Pf20S in the final pooled sample, protein was denatured and loaded into a 4-12% Bis-Tris Plus gel (Thermo Fisher Scientific) beside 60 to 100 ng of human constitutive proteasome (Boston Biochem). […] For inhibition assays, inhibitor and substrate were added simultaneously to the enzyme and the rate of AMC release was determined from 60 to 120 minutes and compared to a DMSO control.

[3] = tested on: 20S Plasmodium proteasome (Pf20S) β2 subunit; experiment: Proteasome activity assay, Pf20S β2 (z-LRR-AMC); format: biochemical; details: 450 nM compound; proteasome not named
Description: as §1, with “Cultures were then transferred to 50 mL conical tubes, pelleted via centrifugation at 800 g for 5 min, and washed once with 1×PBS and pelleted again as above.” left out
P. falciparum proteasome was enriched by two-chromatographic steps reported previously (10). […] The AMC fluorophore release was monitored at Ex 340/Em 465 nm at 24° C. using a Synergy HTX multi-mode reader (Biotek). […] Proteins were eluted using 20 mM Tris-HCl pH 7.5, 100 mM NaCl, 10% glycerol and 1 mL fractions were collected, evaluated for protease activity and pooled. […]

In the case of CCCCCC(=O)N[C@@H](C(=O)N[C@@H](CCCC)C(=O)N[C@@H](CC(C)C)C(=O)[C@@]1(C)CO1)C(C)C [Analog 18, (S)-2-((R)-2-hexanamido-3-methylbutanamido)-N—((S)-4-methyl-1-((R)-2-methyloxiran-2-yl)-1-oxopentan-2-yl)hexanamide], the IC50 [1] is reported as 0.13 µM, the “decrease in β5 activity” value ([2]; 450 nM compound, proteasome not named) is reported as 45% and the “potency towards Pf20S compared with c20S” value ([2]; β5 activity, 50 nM compound) is reported as “more potent towards Pf20S than c20S”. For the same compound, the β2 activity reduced [3] was 9%.
